From article PMC6222718, “Ethylenediamine Derived Carboxamides of Betulinic and Ursolic Acid as Potential Cytotoxic Agents” (Molecules : A Journal of Synthetic Chemistry and Natural …, 2018)

Assays:
[1] = tested on: A2780 (ovarian carcinoma); assay: SRB cytotoxicity assay, A2780; format: cell-based, human; details: for EC50: Homo sapiens, SRB assay, 96 h of treatment, A2780; for Selectivity index (SI) A2780: SI = EC50 (NIH 3T3)/EC50 (A2780)
Procedure: (§1) The cytotoxicity of ursolic and betulinic carboxamides 3–30 was determined in sulforhodamine B (SRB) assays.
(§2) The cell lines used were human cancer cell lines: 518A2 (melanoma), A2780 (ovarian carcinoma), HT29 (colon adenocarcinoma), MCF-7 (breast adenocarcinoma), 8505C (thyroid carcinoma) and non-malignant mouse fibroblasts NIH 3T3. Cultures were maintained as monolayers in RPMI 1640 medium with L-glutamine (Capricorn Scientific GmbH, Ebsdorfergrund, Germany) supplemented with 10% heat inactivated fetal bovineserum (Sigma-Aldrich Chemie GmbH, Steinheim, Germany) and penicillin/streptomycin (Capricorn Scientific GmbH, Ebsdorfergrund, Germany) at 37 °C in a humidified atmosphere with 5% CO2.
(§3) The cytotoxicity of the compounds was evaluated using the sulforhodamine-B (Kiton-Red S, ABCR) micro culture colorimetric assay. Cells were seeded into 96-well plates on day 0 at appropriate cell densities to prevent confluence of the cells during the period of experiment. After 24 h, the cells were treated with 6 different concentrations (1, 3, 7, 12, 20 and 30 µM) minimum. The final concentration of DMSO/DMF never exceeded 0.5%, which was non-toxic to the cells. After a 96 h treatment, the supernatant medium from the 96-well plates was discarded, the cells were fixed with 10% trichloroacetic acid (TCA) and allowed to rest at 4 °C. After 24 h fixation, the cells were washed in a strip washer and dyed with SRB solution (100 µL, 0.4% in 1% acetic acid) for about 20 min. After dying, the plates were washed four times with 1% acetic acid to remove the excess of the dye and allowed to air-dry overnight. Tris base solution (200 µL, 10 mM) was added to each well and absorbance was measured at λ = 570 nm using a 96-well plate reader (Tecan Spectra, Crailsheim, Germany). The EC50 values were averaged from three independent experiments performed each in triplicate calculated from semi logarithmic dose response curves applying a non-linear 4P Hills-slope equation (GraphPad Prism5; variables top and bottom were set to 100 and 0, respectively).

518A2 (melanoma) = assay: SRB cytotoxicity assay, 518A2; format: cell-based, human; details: for EC50: Homo sapiens, SRB assay, 96 h of treatment, 518A2; for Selectivity index (SI) 518A2: SI = EC50 (NIH 3T3)/EC50 (518A2)
Procedure: as §1, §2, §3

[2] = tested on: non-malignant mouse fibroblasts NIH 3T3; assay: SRB cytotoxicity assay, NIH 3T3; format: cell-based; details: NIH3T3, 96 h of treatment
Procedure: as §1, §2, §3

[3] = tested on: MCF-7 (breast adenocarcinoma); assay: SRB cytotoxicity assay, MCF-7; format: cell-based, human; details: for EC50: Homo sapiens, MCF7, SRB assay, 96 h of treatment, MCF-7; for Selectivity index (SI) MCF-7: SI = EC50 (NIH 3T3)/EC50 (MCF-7)
Procedure: as §1, §2, §3

[4] = tested on: HT29 (colon adenocarcinoma); assay: SRB cytotoxicity assay, HT29; format: cell-based, human; details: for EC50: Homo sapiens, HT-29, SRB assay, 96 h of treatment, HT29; for Selectivity index (SI) HT29: SI = EC50 (NIH 3T3)/EC50 (HT29)
Procedure: as §1, §2, §3

[5] = tested on: 8505C (thyroid carcinoma); assay: SRB cytotoxicity assay, 8505C; format: cell-based, human; details: for EC50: Homo sapiens, SRB assay, 96 h of treatment, 8505C; for Selectivity index (SI) 8505C: SI = EC50 (NIH 3T3)/EC50 (8505C)
Procedure: as §1, §2, §3

SMILES | EC50 [1] [µM] | Selectivity index (SI) A2780 [1] | melting point | EC50 (518A2 (melanoma)) [µM] | Selectivity index (SI) 518A2 (518A2 (melanoma)) | EC50 [2] [µM] | EC50 [3] [µM] | Selectivity index (SI) MCF-7 [3] | EC50 [4] [µM] | Selectivity index (SI) HT29 [4] | EC50 [5] [µM] | Selectivity index (SI) 8505C [5]
CC(=O)O[C@H]1CC[C@@]2(C)C(CC[C@]3(C)C2CC=C2C4[C@@H](C)[C@H](C)CC[C@]4(C(=O)NCCN4CCNCC4)CC[C@]23C)C1(C)C (stereo partly drawn) [Compound 7, (3β)-N-(2-Piperazin-1-ylethyl)-3-acetyloxy-urs-12-en-28-amide] | 2.4 ± 0.1 | 0.92 | 145 to 147 °C | 3.2 ± 0.1 | 0.69 | 2.2 ± 0.1 | 2.7 ± 0.3 | 0.81 | 1.8 ± 0.2 | 1.22 | 5.4 ± 0.4 | 0.41
CC(=O)O[C@H]1CC[C@@]2(C)C(CC[C@]3(C)C2CC=C2C4[C@@H](C)[C@H](C)CC[C@]4(C(=O)NCCCCN)CC[C@]23C)C1(C)C (stereo partly drawn) [Compound 8, (3β)-N-(4-Aminobutyl)-3-acetyloxy-urs-12-en-28-amide] | 2.6 ± 0.1 | 0.50 | 117 to 120 °C | 2.7 ± 0.1 | 0.48 | 1.3 ± 0.2 | 1.7 ± 0.1 | 0.76 | 1.7 ± 0.1 | 0.76 | 3.2 ± 0.01 | 0.41
CC(=O)O[C@H]1CC[C@@]2(C)C(CC[C@]3(C)C2CC=C2C4[C@@H](C)[C@H](C)CC[C@]4(C(=O)NCCOCCN)CC[C@]23C)C1(C)C (stereo partly drawn) [Compound 9, (3β)-N-[2-(2-Aminoethoxy)ethyl]-3-acetyloxy-urs-12-en-28-amide] | 3.4 ± 0.5 | 0.91 | 91 to 94 °C | 3.5 ± 0.6 | 0.89 | 3.1 ± 0.4 | 2.3 ± 0.4 | 1.35 | 1.6 ± 0.1 | 1.93 | 5.8 ± 0.4 | 0.53
C[C@@H]1CC[C@]2(C(=O)NCCN)CC[C@]3(C)C(=CCC4[C@@]5(C)CC[C@H](O)C(C)(C)C5CC[C@]43C)C2[C@H]1C (stereo partly drawn) [Compound 10, (3β)-N-(2-Aminoethyl)-3-hydroxy-urs-12-en-28-amide] | 3.3 ± 0.1 | 1.18 | 139 to 142 °C | 3.7 ± 0.5 | 1.05 | 3.9 ± 0.1 | 3.2 ± 0.3 | 1.22 | 2 ± 0.1 | 1.95 | 3.7 ± 0.4 | 1.05
C[C@@H]1CC[C@]2(C(=O)NCCN(C)C)CC[C@]3(C)C(=CCC4[C@@]5(C)CC[C@H](O)C(C)(C)C5CC[C@]43C)C2[C@H]1C (stereo partly drawn) [Compound 11, (3β)-N-[2-(Dimethylamino)ethyl]-3-hydroxy-urs-12-en-28-amide] | 4.3 ± 0.5 | 1.56 | 270 to 273 °C (dec.) | 6.6 ± 0.3 | 1.02 | 6.7 ± 1.3 | 4.2 ± 0.9 | 1.60 | 3 ± 0.2 | 2.23 | 7.3 ± 0.2 | 0.92
C[C@@H]1CC[C@]2(C(=O)NCCN3CCCC3)CC[C@]3(C)C(=CCC4[C@@]5(C)CC[C@H](O)C(C)(C)C5CC[C@]43C)C2[C@H]1C (stereo partly drawn) [Compound 12, (3β)-N-(2-Pyrrolidin-1-ylethyl)-3-hydroxy-urs-12-en-28-amide] | 3.3 ± 0.3 | 1.88 | 263 to 266 °C (dec.) | 5.5 ± 0.1 | 1.13 | 6.2 ± 0.4 | 3.5 ± 1 | 1.77 | 2.6 ± 0.3 | 2.38 | 5.7 ± 0.2 | 1.09
C[C@@H]1CC[C@]2(C(=O)NCCN3CCCCC3)CC[C@]3(C)C(=CCC4[C@@]5(C)CC[C@H](O)C(C)(C)C5CC[C@]43C)C2[C@H]1C (stereo partly drawn) [Compound 13, (3β)-N-(2-Piperidin-1-ylethyl)-3-hydroxy-urs-12-en-28-amide] | 7.6 ± 0.6 | 0.46 | 120 to 124 °C | 12.6 ± 0.2 | 0.28 | 3.5 ± 0.6 | 11.1 ± 1.4 | 0.32 | 8.4 ± 0.7 | 0.42 | 11.1 ± 0.3 | 0.32
C[C@@H]1CC[C@]2(C(=O)NCCN3CCNCC3)CC[C@]3(C)C(=CCC4[C@@]5(C)CC[C@H](O)C(C)(C)C5CC[C@]43C)C2[C@H]1C (stereo partly drawn) [Compound 14, (3β)-N-(2-Piperazin-1-ylethyl)-3-hydroxy-urs-12-en-28-amide] | 4.9 ± 0.4 | 1.35 | 214 to 217 °C | 7 ± 0.4 | 0.94 | 6.6 ± 0.6 | 4.4 ± 0.1 | 1.50 | 2.8 ± 0.4 | 2.36 | 7.8 ± 0.5 | 0.85
C[C@@H]1CC[C@]2(C(=O)NCCCCN)CC[C@]3(C)C(=CCC4[C@@]5(C)CC[C@H](O)C(C)(C)C5CC[C@]43C)C2[C@H]1C (stereo partly drawn) [Compound 15, (3β)-N-(4-Aminobutyl)-3-hydroxy-urs-12-en-28-amide] | 5.4 ± 1.4 | 1.04 | 177 to 180 °C | 9.3 ± 0.1 | 0.60 | 5.6 ± 0.3 | 5.5 ± 1.1 | 1.02 | 2.1 ± 0.3 | 2.67 | 10.8 ± 1.2 | 0.52
C[C@@H]1CC[C@]2(C(=O)NCCOCCN)CC[C@]3(C)C(=CCC4[C@@]5(C)CC[C@H](O)C(C)(C)C5CC[C@]43C)C2[C@H]1C (stereo partly drawn) [Compound 16] | 6.5 ± 1.4 | 1.15 | 126 to 129 °C | 9.9 ± 0.2 | 0.76 | 7.5 ± 0.8 | 6.3 ± 0.6 | 1.19 | 3.1 ± 0.3 | 2.42 | 10.6 ± 1.1 | 0.71
